US5328921A, “Aryl pyridinium compounds which are useful in treating shock” (American Cyanamid Company, priority 1992, dated 1994)
Several values for one entry are separate records, joined by “and”; a condition that tells them apart may be missing. Equal values may be shown once. Where a name gives a salt, the structure may show the parent alone.

Columns and labels:
[1] = tested on: PAF induced lethality in mice; assay: PAF induced lethality in mice; assay type: in vivo; details: 0.5 mg/kg IP 1/2 hour before lethal PAF I.V. challenge, alive after 2 hours, control (saline) 10; for responders at 0.5 mg/kg: Mus musculus, read-out: % Survival
Description: PAF given I.V. to mice causes an immediate hypotensive shock leading to death in 1 hour or less. Compounds are given intraperitoneally at 1/2 hour prior to the PAF challenge. Animals alive after 2 hours are counted and the activity of test compounds expressed as survival corrected for any control (saline treated) animals which survived the PAF challenge.

PAF receptor = target: T1, PAF receptor (Oryctolagus cuniculus, UniProt G1TEI7); assay: In vitro PAF antagonism: inhibition of PAF induced platelet aggregation in rabbit platelet rich plasma; assay type: cell-based, rabbit (male New Zealand White); details: rabbit PRP; for % INH (% of inhibition of PAF induced platelet aggregation): Dose 1.00E-05 M
T1 construct: centrifuged at 800 rpm for 10-15 minutes at room temperature to recover the platelet rich plasma (PRP); endogenous in cells; host or cells: rabbit platelets (platelet rich plasma from citrated blood of male New Zealand White rabbits)
T1 sequence (G1TEI7 1-342): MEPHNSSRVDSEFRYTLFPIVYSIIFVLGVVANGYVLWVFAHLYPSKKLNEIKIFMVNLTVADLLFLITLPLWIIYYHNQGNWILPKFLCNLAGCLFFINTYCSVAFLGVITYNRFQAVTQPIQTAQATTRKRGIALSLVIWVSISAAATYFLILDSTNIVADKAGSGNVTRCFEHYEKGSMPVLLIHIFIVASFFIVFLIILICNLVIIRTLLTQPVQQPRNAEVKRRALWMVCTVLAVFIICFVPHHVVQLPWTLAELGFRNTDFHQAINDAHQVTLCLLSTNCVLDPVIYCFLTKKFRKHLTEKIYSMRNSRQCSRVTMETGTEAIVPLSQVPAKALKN
Description: Test compounds are evaluated as PAF receptor antagonists in vitro by measuring inhibition of PAF (platelet activating factor) induced platelet aggregation. Platelet aggregation is measured by a modification of the method described in A. Wissnet, et. al., J. Med. Chem., 27 1174, 1984.
Approximately 120-240 ml of blood is collected by cardiac puncture from unanesthetized male New Zealand White rabbits (Whaley's Summit View Farms, Belvedere, N.J.) with the use of 3.2% sodium citrate anticoagulant (1 part of citrate/10 parts of blood). All syringes and pipers are plastic. The blood is gently mixed and immediately centrifuged at 800 rpm for 10-15 minutes at room temperature to recover the platelet rich plasma (PRP). Platelet poor plasma (PPP) is prepared by centrifuging PRP at 2800 rpm for 10 minutes at room temperature.
Dilutions (113000) of PRP in Isoton, diluent are made and platelet counts are determined on a Coulter Thrombocounter which is standardized with platelet reference standards (Interscience Platelet Control, Portland, Oreg.). PRP platelet counts are adJusted to approximately 400,000-500,000 platelets/11 by the addition of PPP.
L-PAF (Platelet Activating Factor) is obtained from Calbiochem. A stock solution of 1-2 E-3M is prepared in 10% ethanol in water or 100% methanol and serial working dilutions are made using saline. E-3M stock solutions of test compounds are prepared in 100% methanol and serially diluted in PBS. Sonication of samples before testing in biological screens assists in the solubility of compounds in the liquid medium. All solutions are made up in plastic tubes, stored on ice and protected from heat and light. Solutions are prepared fresh or frozen at -20° C. and used within 48 hours.
Incubation mixtures consisted of 400 11 PRP, 50 11 of saline diluent or test compound and 50 11 of PAF agohist. More specifically, 40011 of PRP is stabilized in a cuvette for 1-2 minutes at 37° C. in the aggregometer to achieve a stable baseline, then 50 11 of saline or test compound is added and incubated for 5 minutes before addition of the challenge concentration of PAF. A submaximal concentration is determined from the dose response curve for PAF for that experiment. In general, the challenge concentration is 5E-8 or 1E-7M. Aggregation is monitored for 5 minutes. Samples containing test compound or diluent are run simultaneously for comparison. Test compounds are initially evaluated at a screening concentration of 1E-SM.
The recording equipment consists of a dual channel Chronolog aggregometer connected to a dual channel 10MV full scale deflection Omniscribe chart recorder (Houston Instruments). The chart recorder is calibrated daily with the use of a suspension of Bio-Rad latex beads (S-X 12 400 mesh) which has a density slightly greater than rabbit PRP. The bead suspension is used to set the 0% light transmission mark and clear water is used to set the 100% light transmission mark. These limits defined a full scale deflection. The aggregation traces are analyzed by a digitizing method (C. Kohler and B. Zoltan, J. Pharm. Methods, 12, 113, 1984) with x, y coordinate data stored in a computer file. A suitable program computes parameters of interest such as the magnitude of aggregation.

| Compound | responders at 0.5 mg/kg [1] [%] | IC50 (PAF receptor; PAF challenge 5.00E-08 M) | further results |
| --- | --- | --- | --- |
| CCCCCCCCCCCCCCOc1ccc(CN(Cc2cccc[n+]2C)S(C)(=O)=O)cc1 [1-Methyl-2-[[(methylsulfonyl)[[4-(tetradecyloxy)-phenyl]methyl]amino]methyl]pyridinium iodide] | 55 |  |  |
| CCCCCCCCCCCCCCOc1ccccc1CN(Cc1cccc[n+]1C)C(C)=O [2-[[Acetyl[[2-(tetradecyloxy)phenyl]methyl]amino]-methyl]-1-methylpyridinium iodide] | 23 | 43 µM |  |
| CCCCCCCCCCCCCCOc1ccc(C(=O)N(Cc2cccc[n+]2C)C(C)=O)cc1OC [2-[[Acetyl[3-methoxy-4-(tetradecyloxy)benzoyl]amino]-methyl]-1-methylpyridinium iodide] | 43 | 0.0636 µM |  |
| CCCCCCCCCCCCCCOc1ccc(C(=O)NCCc2cccc[n+]2C)cc1 [1-Methyl-2-[2-[[4-(tetradecyloxy)benzoyl]amino]-ethyl]pyridinium iodide] |  |  | IC50 (PAF receptor; PAF challenge 1.00E-08 M): 14 µM |
| CCCCCCCCCCCCCCOc1ccc(C(=O)N(Cc2ccc[n+](C)c2)C(C)=O)cc1C(C)(C)C [3-[[Acetyl[3-(1,1-dimethylethyl)-4-(tetradecyloxy)-benzoyl]amino]methyl]-1-methylpyridinium iodide] |  | 20 µM |  |
| CCCCCCCCCCCCCCOc1ccc(C(=O)N(Cc2cccc[n+]2Cc2ccccc2)C(C)=O)cc1 [2-[[Acetyl[4-(tetradecyloxy)benzoyl]amino]methyl]-1-(phenylmethyl)pyridinium bromide] | 0 | 300 µM |  |
| CCCCCCCOc1ccc(C(=O)N(Cc2cccc[n+]2C)C(C)=O)cc1OCCCCCCC [2-[[Acetyl[3,4-bis(heptyloxy)benzoyl]amino]methyl]-1-methylpyridinium iodide] | 45 |  |  |
| CCCCCCCCCCCCCCOc1ccc(C(=O)N(Cc2cccc[n+]2C)C(C)=O)cc1OCCCCCCCCCCCCCC [2-[[Acetyl[3,4-bis(tetradecyloxy)benzoyl]amino]-methyl]-1-methylpyridinium iodide] | 36 |  |  |
| CCCCCCCCCCCCCCOc1cc(C(=O)N(Cc2cccc[n+]2C)C(C)=O)ccc1OC [2-[[Acetyl[4-methoxy-3-(tetradecyloxy)benzoyl]-amino]methyl]-1-methylpyridinium iodide] | 21 | 160 µM |  |
| CCCCCCCCCCCCCCOc1ccc(CN(Cc2cccc[n+]2CC)C(C)=O)cc1 [2-[[Acetyl[[4-(tetradecyloxy)phenyl]methyl]amino]-methyl]-1-ethylpyridiniumiodide] |  |  | IC50 (PAF receptor; PAF challenge 1.00E-07 M): 13 µM |
| CCCCCCCCCCCCCCCCOc1ccc(OCC(=O)N(Cc2cccc[n+]2C)C(C)=O)cc1 [2-[[Acetyl[[4-(hexadecyloxy)phenoxy]acetyl]amino]-methyl]-1-methylpyridinium iodide] |  | 280 µM |  |
| CCCCCCCCCCCCCCOc1ccc(CN(Cc2ccc[n+](C)c2)C(C)=O)cc1 [3-[[Acetyl[[4-(tetradecyloxy)phenyl]methyl]amino]-methyl]-1-methylpyridinium iodide] | 38 |  | IC50 (PAF receptor; PAF challenge 1.00E-08 M): 14 µM |
| CCCCCCCCCCCCCCOc1ccc(CC(=O)NCCc2cccc[n+]2C)cc1 [1-Methyl-2-[2-[[[4-(tetradecyloxy)phenyl]acetyl]-amino]ethyl]pyridinium iodide] |  | 15 µM |  |
| CCCCCCCCCCCCCCOc1ccc(C(=O)N(Cc2cccc[n+]2C)C(C)=O)cc1C(C)(C)C [2-[[Acetyl[3-(1,1-dimethylethyl)-4-(tetradecyloxy)-benzoyl]amino]methyl]-1-methylpyridinium iodide] | 60 | 0.0215 µM | IC50 (PAF receptor; PAF challenge 1.00E-07 M): 0.0141 µM and 0.036 µM |
| CCCCCCCCCCCCCCOc1ccc(C(=O)N(Cc2cccc[n+]2C)C(=O)c2ccccc2OC)cc1 [2-[[(2-Methoxybenzoyl)[4-(tetradecyloxy)]benzoyl]-amino]methyl]-1-methylpyridinium iodide] |  | 1.5 µM | % INH (% of inhibition of PAF induced platelet aggregation) (PAF receptor; PAF challenge 5.00E-08 M): 0% |
| CCCCCCCCCCCCCCOc1ccc(C(=O)N(Cc2cccc[n+]2C)C(C)=O)cc1.[I-] [2-[[Acetyl[4-(tetradecyloxy)benzoyl]amino]methyl]-1-methylpyridinium iodide] | 27 | 0.86 µM and 0.7 µM and 0.96 µM and 1.3 µM | % INH (% of inhibition of PAF induced platelet aggregation) (PAF receptor; PAF challenge 5.00E-08 M): 0% |
| CCCCCCCCCCCCCCOc1ccc(CN(Cc2cc[n+](C)cc2)C(C)=O)cc1 [4-[[Acetyl[[4-(tetradecyloxy)phenyl]methyl]amino]-methyl]-1-methylpyridinium iodide] |  | 1 µM |  |
| CCCCCCCCCCCCCCOc1ccc(CN(C(=O)c2ccc[n+](C)c2)c2ccccc2)cc1 [1-Methyl-3-[[phenyl[[4-(tetradecyloxy)phenyl]methyl]-amino]carbonyl]pyridinium iodide] | 69 |  |  |
| CCCCCCCCCCCCCCOc1ccc(C(=O)NCc2cccc[n+]2C)cc1OCCCCCCCCCCCCCC [1-Methyl-2-[[[3,4-bis(tetradecyloxy)benzoyl]amino]-methyl]pyridinium iodide] | 0 |  |  |
| CCCCCCCCCCCCCCOc1ccc(N(Cc2ccc[n+](C)c2)C(C)=O)cc1 [3-[[Acetyl[4-(tetradecyloxy)phenyl]amino]methyl]-1-methylpyridinium iodide] | 7 |  |  |
| 2-[[Acetyl[[4-(tetradecyloxy)-benzoyl]methyl]amino]methyl]-1-ethylpyridinium iodide |  |  | % Survival [1]: 40% |
| CCCCCCCCCCCCCCCCOc1ccc(OCC(=O)NCc2cccc[n+]2CC)cc1 [1-Ethyl-2-[[[[4-(hexadecyloxy)phenoxy]acetyl]amino]-methyl]pyridinium iodide] |  | 7.2 µM and 5.6 µM |  |
| CCCCCCCCCCCCCCOc1ccc(COC(=O)N(Cc2cccc[n+]2C)C(C)=O)cc1 [2-[[Acetyl[[[4-(tetradecyloxyphenyl]methoxy]-carbonyl]amino]methyl]-1-methylpyridinium iodide] | 40 |  |  |
| CCCCCCCCCCCCCCOc1ccc(CN(C(=O)c2ccc[n+](CCC)c2)c2ccccc2)cc1 [3-[[Phenyl[[4-(tetradecyloxy)phenyl]methyl]amino]-carbonyl]-1-propylpyridinium iodide] | 64 |  |  |
| CCCCCCCCCCCCCCOc1ccc(C(=O)N(Cc2ccc[n+](C)c2)C(C)=O)cc1 [3-[[Acetyl[4-(tetradecyloxy)benzoyl]amino]methyl]-1-methylpyridinium iodide] |  | 6.8 µM |  |
| CCCCCCCCCCCCCCOc1ccc(C(=O)N(Cc2cccc[n+]2C)S(C)(=O)=O)cc1 [1-Methyl-2-[[(methylsulfonyl)[4-(tetradecyloxy)-benzoyl]amino]methyl]pyridinium salt with trifluoromethanesulfonic acid (1:1)] | 88 |  |  |
| CCCCCCCCCCCCCCOc1ccc(C(=O)N(Cc2cccc[n+]2CC)C(C)=O)cc1OC.[I-] [2-[[Acetyl[3-methoxy-4-(tetradecyloxy)benzoyl]amino]-methyl]-1-ethylpyridinium iodide] | 29 | 0.0703 µM and 0.24 µM | % INH (% of inhibition of PAF induced platelet aggregation) (PAF receptor; PAF challenge 5.00E-08 M): 95% |
| CCCCCCCCCCCCCCCCOc1ccc(OCC(=O)NCCc2cccc[n+]2CC)cc1 [1-Ethyl-2-[2-[[[4-(hexadecyloxy)phenoxy]acetyl]-amino]ethyl]pyridinium iodide] |  | 2.7 µM and 3.2 µM | IC50 (PAF receptor; PAF challenge 1.00E-07 M): 4.64 µM |
| CCCCCCCCCCCCCCOc1ccc(CNC(=O)c2cc[n+](C)cc2)cc1 [1-Methyl-4-[[[[4-(tetradecyloxy)phenyl]methyl]amino]-carbonyl]pyridinium iodide] |  | 60 µM |  |
